Source: ChEMBL document CHEMBL1201862, “PubChem BioAssay data set” (2004)
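Cells were grown in 96-well plates and exposed to each compound for 48 hours at five concentrations; endpoints were interpolated linearly between bracketing concentrations, or set to the highest concentration if not reached. Here, GI50 denotes the concentration required for 50% inhibition of growth.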 The source made the active and inactive calls. No stated cut-off is given here; in the data, active = GI50 up to about 1.1 µM and inactive = higher.

Legend:
Test in all cases: NCI tumour cell line growth inhibition, 48 h
[1] = test system: SK-OV-3
[2] = test system: NCI-H226
[3] = test system: SF-295
[4] = test system: LOX IMVI
[5] = test system: CAKI-1
[6] = test system: SF-268
[7] = test system: Hs-578T
[8] = test system: UO-31
[9] = test system: SK-MEL-5
[10] = test system: MCF7
[11] = test system: HCC 2998
[12] = test system: MOLT-4
[13] = test system: RXF 393
[14] = test system: SF-539
[15] = test system: PC-3
[16] = test system: U-251
[17] = test system: ACHN
[18] = test system: SW-620
[19] = test system: M14
[20] = test system: Malme-3M

| SMILES | GI50 [1] | GI50 [2] | GI50 [3] | GI50 [4] | GI50 [5] | GI50 [6] | GI50 [7] | GI50 [8] | GI50 [9] | GI50 [10] | GI50 [11] | GI50 [12] | GI50 [13] | GI50 [14] | GI50 [15] | GI50 [16] | GI50 [17] | GI50 [18] | GI50 [19] | GI50 [20] |
| --- | --- | --- | --- | --- | --- | --- | --- | --- | --- | --- | --- | --- | --- | --- | --- | --- | --- | --- | --- | --- |
| S=C1NC2=C(COC/C2=C\c2ccccc2Cl)C(c2ccccc2Cl)N1 (stereo unspecified) | > 100 µM (inactive) | 27.4 µM (inactive) | 35.2 µM (inactive) | 21.2 µM (inactive) | 73.8 µM (inactive) | 51.4 µM (inactive) | > 100 µM (inactive) | 19.5 µM (inactive) | 15.6 µM (inactive) | 16.4 µM (inactive) | 6.98 µM (inactive) | 7.5 µM (inactive) | 33.3 µM (inactive) | 34.9 µM (inactive) | 14.3 µM (inactive) | 25.1 µM (inactive) | 34.4 µM (inactive) | 25.5 µM (inactive) | 25.8 µM (inactive) | – |
| CN(C)CC1CCC/C(=C\c2ccc(OC(=O)/C=C/c3ccccc3)cc2)C1=O (stereo unspecified) | 24.2 µM (inactive) | 2.96 µM (inactive) | 3.56 µM (inactive) | 0.538 µM (active) | 1.82 µM (inactive) | 3.37 µM (inactive) | 3.28 µM (inactive) | 1.83 µM (inactive) | 3.64 µM (inactive) | 0.208 µM (active) | 10.5 µM (inactive) | 1.3 µM (inactive) | 1.93 µM (inactive) | 1.77 µM (inactive) | 4.74 µM (inactive) | 1.72 µM (inactive) | 2.51 µM (inactive) | 1.95 µM (inactive) | 2.36 µM (inactive) | 2.2 µM (inactive) |
| N#CC(NNC(=O)Cc1ccccc1)c1ccccc1O (stereo unspecified) | 14.5 µM (inactive) | 17.3 µM (inactive) | 9.68 µM (inactive) | 4.98 µM (inactive) | 12.6 µM (inactive) | 9.04 µM (inactive) | 56.2 µM (inactive) | 4.54 µM (inactive) | 10.6 µM (inactive) | 10.2 µM (inactive) | 12.7 µM (inactive) | 3.72 µM (inactive) | 24.7 µM (inactive) | 16.4 µM (inactive) | 5.79 µM (inactive) | 6.15 µM (inactive) | 6.56 µM (inactive) | 10.2 µM (inactive) | 10.5 µM (inactive) | 16.3 µM (inactive) |
| CC1CC[C@@]2(OC1)OC1C[C@H]3[C@@H]4CCC5CC(O)CC[C@]5(C)[C@H]4C/C(=N\N(C)C)[C@]3(C)C1[C@@H]2C (stereo partly specified) | 18.7 µM (inactive) | 34.2 µM (inactive) | – | 26.7 µM (inactive) | – | 31.1 µM (inactive) | 28.6 µM (inactive) | 33.5 µM (inactive) | 21.7 µM (inactive) | 34.9 µM (inactive) | 19.1 µM (inactive) | 24.7 µM (inactive) | 16.3 µM (inactive) | 23.8 µM (inactive) | 25.6 µM (inactive) | 31 µM (inactive) | 30.3 µM (inactive) | 40.3 µM (inactive) | 32.3 µM (inactive) | 33.1 µM (inactive) |
| CNC(=S)/C(=N\Nc1[nH]cnc1C(N)=O)C(N)=S | 1.51 µM (inactive) | 5.73 µM (inactive) | 3.36 µM (inactive) | 0.598 µM (active) | 1.71 µM (inactive) | 3.18 µM (inactive) | 9.14 µM (inactive) | 1.61 µM (inactive) | 11.5 µM (inactive) | 16.5 µM (inactive) | 1.99 µM (inactive) | 0.711 µM (active) | > 100 µM (inactive) | 5.21 µM (inactive) | 5.52 µM (inactive) | 30.3 µM (inactive) | 5.32 µM (inactive) | 3.78 µM (inactive) | 1.1 µM (active) | 1.1 µM (active) |
| CCCCOC(=O)C(=O)C(CCC(=O)c1ccc(C)cc1)C(=O)C=C(C)C (stereo unspecified) | > 100 µM (inactive) | > 100 µM (inactive) | > 100 µM (inactive) | > 100 µM (inactive) | > 100 µM (inactive) | > 100 µM (inactive) | > 100 µM (inactive) | > 100 µM (inactive) | > 100 µM (inactive) | > 100 µM (inactive) | > 100 µM (inactive) | > 100 µM (inactive) | > 100 µM (inactive) | > 100 µM (inactive) | > 100 µM (inactive) | > 100 µM (inactive) | > 100 µM (inactive) | > 100 µM (inactive) | > 100 µM (inactive) | > 100 µM (inactive) |
| CC1CC(NN(C)C)C2(C(N)=O)C(N)=NC(=O)C12C#N (stereo unspecified) | > 100 µM (inactive) | > 100 µM (inactive) | > 100 µM (inactive) | > 100 µM (inactive) | > 100 µM (inactive) | > 100 µM (inactive) | > 100 µM (inactive) | > 100 µM (inactive) | > 100 µM (inactive) | > 100 µM (inactive) | > 100 µM (inactive) | > 100 µM (inactive) | > 100 µM (inactive) | > 100 µM (inactive) | > 100 µM (inactive) | > 100 µM (inactive) | > 100 µM (inactive) | > 100 µM (inactive) | > 100 µM (inactive) | > 100 µM (inactive) |
| CNC(=S)NN=C1NCCCN1 | > 100 µM (inactive) | > 100 µM (inactive) | > 100 µM (inactive) | > 100 µM (inactive) | > 100 µM (inactive) | > 100 µM (inactive) | > 100 µM (inactive) | > 100 µM (inactive) | > 100 µM (inactive) | > 100 µM (inactive) | > 100 µM (inactive) | > 100 µM (inactive) | > 100 µM (inactive) | > 100 µM (inactive) | > 100 µM (inactive) | > 100 µM (inactive) | > 100 µM (inactive) | > 100 µM (inactive) | > 100 µM (inactive) | > 100 µM (inactive) |
| CCOC(=O)c1sc2c(c1OC(=O)c1cc(OC)c(OC)c(OC)c1)c(=O)n(-c1ccccc1)c(=S)n2-c1ccccc1 | > 100 µM (inactive) | > 100 µM (inactive) | > 100 µM (inactive) | > 100 µM (inactive) | > 100 µM (inactive) | > 100 µM (inactive) | 51.2 µM (inactive) | – | > 100 µM (inactive) | > 100 µM (inactive) | 81.3 µM (inactive) | 28.4 µM (inactive) | > 100 µM (inactive) | > 100 µM (inactive) | 63.5 µM (inactive) | 49.8 µM (inactive) | > 100 µM (inactive) | > 100 µM (inactive) | 40.5 µM (inactive) | > 100 µM (inactive) |
| CC(C)O/N=C/c1cc(NC(=S)OC(C)C)ccc1Cl | 38.8 µM (inactive) | 28.8 µM (inactive) | 25.2 µM (inactive) | 28.1 µM (inactive) | 22.9 µM (inactive) | 36.1 µM (inactive) | 30.1 µM (inactive) | 21.7 µM (inactive) | 23 µM (inactive) | 23.5 µM (inactive) | 45.2 µM (inactive) | 15.8 µM (inactive) | 20.6 µM (inactive) | 24.8 µM (inactive) | 36.8 µM (inactive) | 32.2 µM (inactive) | 35.2 µM (inactive) | 45.2 µM (inactive) | 62.7 µM (inactive) | > 91.8 µM (inactive) |
| COc1cc2c(c(OC)c1OC)C(=O)[C@H](O)[C@H]2NC(N)=O | – | > 100 µM (inactive) | > 100 µM (inactive) | 72.1 µM (inactive) | 90.6 µM (inactive) | > 100 µM (inactive) | 60 µM (inactive) | > 100 µM (inactive) | 40.7 µM (inactive) | > 100 µM (inactive) | > 100 µM (inactive) | 95.9 µM (inactive) | 47.8 µM (inactive) | > 100 µM (inactive) | > 100 µM (inactive) | 44.2 µM (inactive) | 34.1 µM (inactive) | > 100 µM (inactive) | 47.6 µM (inactive) | > 100 µM (inactive) |
| COc1cccc(NC(=O)c2c(N)n[nH]c2SC)c1 | > 100 µM (inactive) | > 100 µM (inactive) | > 100 µM (inactive) | > 100 µM (inactive) | > 100 µM (inactive) | > 100 µM (inactive) | > 100 µM (inactive) | – | > 100 µM (inactive) | > 100 µM (inactive) | > 100 µM (inactive) | > 100 µM (inactive) | > 100 µM (inactive) | > 100 µM (inactive) | > 100 µM (inactive) | > 100 µM (inactive) | > 100 µM (inactive) | > 100 µM (inactive) | > 100 µM (inactive) | > 100 µM (inactive) |
| CC1(C)N=[N+]([O-])C1(C)C | > 100 µM (inactive) | > 100 µM (inactive) | – | > 100 µM (inactive) | > 100 µM (inactive) | > 100 µM (inactive) | > 100 µM (inactive) | > 100 µM (inactive) | > 100 µM (inactive) | > 100 µM (inactive) | > 100 µM (inactive) | > 100 µM (inactive) | > 100 µM (inactive) | > 100 µM (inactive) | > 100 µM (inactive) | > 100 µM (inactive) | – | > 100 µM (inactive) | > 100 µM (inactive) | > 100 µM (inactive) |
| CCOc1ccc2c(c1)NC(=O)C(C1OC(c3ccccc3)=CC1=O)S2 (stereo unspecified) | 16.1 µM (inactive) | 27.7 µM (inactive) | 27 µM (inactive) | 23.2 µM (inactive) | 34.5 µM (inactive) | 27.5 µM (inactive) | 27.5 µM (inactive) | 29.3 µM (inactive) | 18.8 µM (inactive) | 16.2 µM (inactive) | 14.4 µM (inactive) | – | 19.7 µM (inactive) | 25.1 µM (inactive) | 13.8 µM (inactive) | 19.7 µM (inactive) | 37.2 µM (inactive) | 33.4 µM (inactive) | 48.2 µM (inactive) | 21.1 µM (inactive) |
